Assay results as given in ChEMBL document CHEMBL5726842, “Bicyclic azaheterocyclobenzylamines as PI3K inhibitors” (2019).

Biological target: T1, Phosphatidylinositol 4,5-bisphosphate 3-kinase catalytic subunit delta isoform (Homo sapiens, UniProt O00329)
T1 sequence (O00329 whole entry): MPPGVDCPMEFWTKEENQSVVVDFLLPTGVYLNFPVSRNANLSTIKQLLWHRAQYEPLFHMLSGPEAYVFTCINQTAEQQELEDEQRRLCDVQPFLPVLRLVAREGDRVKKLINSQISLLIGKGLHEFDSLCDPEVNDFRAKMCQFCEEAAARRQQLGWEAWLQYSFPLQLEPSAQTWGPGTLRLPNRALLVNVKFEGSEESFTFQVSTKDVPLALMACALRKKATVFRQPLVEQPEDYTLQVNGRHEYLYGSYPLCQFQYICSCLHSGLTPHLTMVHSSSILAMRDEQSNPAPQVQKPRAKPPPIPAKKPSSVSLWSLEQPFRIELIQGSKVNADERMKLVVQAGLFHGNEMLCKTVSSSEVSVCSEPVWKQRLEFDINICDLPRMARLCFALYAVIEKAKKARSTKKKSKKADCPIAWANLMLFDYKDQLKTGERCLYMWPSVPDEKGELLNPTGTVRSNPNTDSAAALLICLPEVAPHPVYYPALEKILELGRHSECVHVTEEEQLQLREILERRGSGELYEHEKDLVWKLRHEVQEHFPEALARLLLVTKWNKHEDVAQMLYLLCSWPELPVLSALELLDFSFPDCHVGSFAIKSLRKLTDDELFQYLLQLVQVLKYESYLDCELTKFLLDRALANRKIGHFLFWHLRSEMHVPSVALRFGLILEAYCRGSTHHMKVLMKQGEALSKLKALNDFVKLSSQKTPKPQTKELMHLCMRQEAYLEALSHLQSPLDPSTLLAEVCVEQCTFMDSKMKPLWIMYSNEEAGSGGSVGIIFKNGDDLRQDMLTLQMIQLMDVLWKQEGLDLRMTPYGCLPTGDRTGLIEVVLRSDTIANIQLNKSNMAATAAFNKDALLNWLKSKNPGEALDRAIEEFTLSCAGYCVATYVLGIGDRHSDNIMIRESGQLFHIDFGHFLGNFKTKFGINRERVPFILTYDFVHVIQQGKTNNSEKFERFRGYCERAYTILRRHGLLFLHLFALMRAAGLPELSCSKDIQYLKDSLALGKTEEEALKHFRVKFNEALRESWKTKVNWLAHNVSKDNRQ
Assay: PI3Kdelta Scintillation Proximity Assay: [γ-33P]ATP (10mCi/mL) was purchased from Perkin-Elmer (Waltham, Mass.). Lipid kinase substrate, D-myo-Phosphatidylinositol 4,5-bisphosphate (PtdIns(4,5)P2)D (+)-sn-1,2-di-O-octanoylglyceryl, 3-O-phospho linked (PIP2), CAS 204858-53-7, was purchased from Echelon Biosciences (Salt Lake City, Utah). PI3Kδ (p110δ/p85α) was purchased from Millipore (Bedford, Mass.). ATP, MgCl2, DTT, EDTA, MOPS and CHAPS were purchased from Sigma-Aldrich (St. Louis, Mo.). Wheat Germ Agglutinin (WGA) YSi SPA Scintillation Beads was purchased from GE healthcare life sciences (Piscataway, N.J.).The kinase reaction was conducted in polystyrene 384-well matrix white plate from Thermo Fisher Scientific in a final volume of 25 μL. Inhibitors were first diluted serially in DMSO and added to the plate wells before the addition of other reaction components. The final concentration of DMSO in the assay was 0.5%. The PI3K assays were carried out at room temperature in 20 mM MOPS, pH 6.7, 10 mM MgCl2, 5 mM DTT and CHAPS 0.03%.Reactions were initiated by the addition of ATP, the final reaction mixture consisted of 20 μM PIP2, 20 μM ATP, 0.2 μCi [γ-33P] ATP, 4 nM PI3Kδ. Reactions were incubated for 210 min and terminated by the addition of 40 μL SPA beads suspended in quench buffer: 150 mM potassium phosphate pH 8.0, 20% glycerol. 25 mM EDTA, 400 μM ATP. […]

Cc1nn(C(C)c2cc(Cl)c(F)c3c2O[C@H](C)CN(C2CC(C(=O)O)C2)C3)c2ncnc(N)c12 (stereo partly specified)
IC50: < 100 nM
